Reference: the supplement of paper PMC13380429
Where a name gives a salt, the structure may show the parent alone. ± gives the standard deviation of the averaged measurements.

Assays:
Conditions in all cases: 72 h
[1] = system: Caco-2; test: cell viability relative to DMSO; higher = less toxic
[2] = system: Calu-3; test: as above
[3] = system: HepG2; test: as above
[4] = system: Vero E6; test: as above
[5] = system: Caco-2; test: relative viability EC50 (midpoint between 100% and the lowest measured viability); higher = less toxic
[6] = system: Calu-3; test: as above
[7] = system: HepG2; test: as above
[8] = system: Vero E6; test: as above
[9] = system: Caco-2; test: drug sensitivity score (DSS) for viability; higher = more toxic; extreme values may be limits of the assay
[10] = system: Calu-3; test: as above
[11] = system: HepG2; test: as above
[12] = system: Vero E6; test: as above
[13] = system: U2OS; test: cell viability relative to DMSO; higher = less toxic
[14] = system: U2OS; test: drug sensitivity score (DSS) for viability; higher = more toxic; extreme values may be limits of the assay
[15] = system: U2OS; test: relative viability EC50 (midpoint between 100% and the lowest measured viability); higher = less toxic

SMILES | cell viability ([1]; 1 nM) | cell viability ([1]; 10 nM) | cell viability ([1]; 100 nM) | cell viability ([1]; 1000 nM) | cell viability ([1]; 10000 nM) | cell viability ([2]; 1 nM) | cell viability ([2]; 10 nM) | cell viability ([2]; 100 nM) | cell viability ([2]; 1000 nM) | cell viability ([2]; 10000 nM) | cell viability ([3]; 1 nM) | cell viability ([3]; 10 nM) | cell viability ([3]; 100 nM) | cell viability ([3]; 1000 nM) | cell viability ([3]; 10000 nM) | cell viability ([4]; 1 nM) | cell viability ([4]; 10 nM) | cell viability ([4]; 100 nM) | cell viability ([4]; 1000 nM) | cell viability ([4]; 10000 nM) | relative viability EC50 [5] | relative viability EC50 [6] | relative viability EC50 [7] | relative viability EC50 [8] | drug sensitivity score [9] | drug sensitivity score [10] | drug sensitivity score [11] | drug sensitivity score [12] | cell viability ([13]; 1 nM) | cell viability ([13]; 10 nM) | cell viability ([13]; 100 nM) | cell viability ([13]; 1000 nM) | cell viability ([13]; 10000 nM) | drug sensitivity score [14] | relative viability EC50 [15]
COc1cc(NS(=O)(=O)c2ccc(N)cc2)nc(OC)n1 [sulphadimethoxine] | 109% | 99.9% | 103% | 100% | 99.9% | 103% | 90.3% | 91.8% | 98.9% | 94% | 106% | 108% | 122% | 98.9% | 105% | 100% | 97.8% | 98.8% | 103% | 97.5% | > 10 µM | > 10 µM | > 10 µM | > 10 µM | 0 | 0 | 0 | 0 |  |  |  |  |  |  | 
COc1cc(OC2CCN(C)CC2)ccc1Nc1ncc2c(n1)n(C1CCCC1)c(=O)n2C [AZ3146] | 103% | 101% | 104% | 95% | 76.8% | 95.5% | 87.4% | 93.6% | 84.4% | 62.4% | 106% | 97.9% | 102% | 96.1% | 28.8% | 111% | 104% | 103% | 99.4% | 41.8% | > 10 µM |  | 2.74 µM | 3.1 µM | 1.5 | 3.8 | 4.5 | 3.2 | 100% | 104% | 101% | 92.2% | 57% | 3.5 | 
CCOC(=O)CC(=O)N1CCSC1COc1ccccc1OC (stereo unspecified) [moguisteine] | 98.6% | 98.3% | 96.3% | 105% | 98.4% | 99.2% | 103% | 99.3% | 97.6% | 92.8% | 93.7% | 97% | 99.2% | 112% | 104% | 99.7% | 101% | 100% | 105% | 105% | > 10 µM | > 10 µM | > 10 µM | > 10 µM | 0 | 0 | 0 | 0 |  |  |  |  |  |  | 
[O-][S+](c1ccccc1)c1ccc2nnnn2n1 (stereo unspecified) [Ro-106-9920] | 89.7% | 92.3% | 92.1% | 95.4% | 39.5% | 96.3% | 94.9% | 105% | 98.8% | 63.7% | 106% | 102% | 110% | 98.1% | 1.1% | 97.7% | 95.6% | 95.9% | 90.5% | 12.1% | 2.54 µM |  | 3.03 µM | 2.28 µM | 4 | 1.9 | 5.8 | 6.4 | 99.9% | 103% | 95% | 95.9% | 2.5% | 6 | 2.84 µM
O=C1c2cc(Cl)ccc2OC2CCON12 (stereo unspecified) [seclazone] | 108% | 86.3% | 91% | 97.4% | 99.2% |  |  |  |  |  | 102% | 108% | 94.8% | 97.8% | 107% | 90% | 98.2% | 92.7% | 95.2% | 102% | > 10 µM |  | > 10 µM | > 10 µM | 0 |  | 0 | 0 | 106% | 96.7% | 101% | 105% | 100% | 0 | > 10 µM
COc1ccc2[nH]cc(CCNC(C)=O)c2c1 [melatonin] | 107% | 88.8% | 101% | 102% | 99.5% | 101% | 105% | 96.8% | 109% | 105% |  |  |  |  |  |  |  |  |  |  | > 10 µM | > 10 µM |  |  | 0 | 0 |  |  |  |  |  |  |  |  | 
CN[C@H](CC(C)C)C(=O)N[C@H]1C(=O)N[C@@H](CC(N)=O)C(=O)N[C@H]2C(=O)N[C@H]3C(=O)N[C@H](C(=O)N[C@H](C(=O)O)c4cc(O)cc(O)c4-c4cc3ccc4O)[C@H](O[C@H]3C[C@](C)(N)[C@@H](O)[C@H](C)O3)c3ccc(c(Cl)c3)Oc3cc2cc(c3O[C@@H]2O[C@H](CO)[C@@H](O)[C@H](O)[C@H]2O[C@H]2C[C@](C)(NCc3ccc(-c4ccc(Cl)cc4)cc3)[C@@H](O)[C@H](C)O2)Oc2ccc(cc2Cl)[C@H]1O [oritavancin] | 97.2% | 97.7% | 98% | 90.4% | 102% |  |  |  |  |  | 104% | 106% | 98.9% | 104% | 105% | 108% | 113% | 93.2% | 106% | 95.7% | > 10 µM |  | > 10 µM | > 10 µM | 0 |  | 0 | 0 | 102% | 100% | 103% | 96.5% | 102% | 0 | > 10 µM
C/C(=N\NC(=O)[C@@H]1C(=O)NC[C@H]1c1ccccc1)c1cccc(Br)c1 | 102% | 97.5% | 104% | 96% | 101% |  |  |  |  |  | 99.4% | 99.8% | 101% | 103% | 92.4% | 96.3% | 97.9% | 94% | 98.2% | 96.4% | > 10 µM |  | > 10 µM | > 10 µM | 0 |  | 0 | 0 | 99.9% | 100% | 103% | 94.1% | 97.5% | 0 | > 10 µM
Cc1cn(C[C@H](N)C(=O)O)c(=O)n(Cc2ccsc2C(=O)O)c1=O [UBP-310] | 99.7% | 93.6% | 101% | 93% | 99.5% |  |  |  |  |  | 96.6% | 91.3% | 94.6% | 91.2% | 88.1% | 97.3% | 101% | 98.3% | 97.6% | 97.3% | > 10 µM |  | > 10 µM | > 10 µM | 0 |  | 0 | 0 | 98.8% | 97.3% | 98.5% | 97% | 98.5% | 0 | > 10 µM
CN[C@H](CC(C)C)C(=O)N[C@H]1C(=O)N[C@@H](CC(N)=O)C(=O)N[C@H]2C(=O)N[C@H]3C(=O)N[C@H](C(=O)N[C@H](C(=O)O)c4cc(O)cc(O)c4-c4cc3ccc4O)[C@H](O)c3ccc(c(Cl)c3)Oc3cc2cc(c3O[C@@H]2O[C@H](CO)[C@@H](O)[C@H](O)[C@H]2O[C@H]2C[C@](C)(N)[C@H](O)[C@H](C)O2)Oc2ccc(cc2Cl)[C@H]1O [VANCOMYCIN HYDROCHLORIDE] | 80.7% | 92.2% | 94.9% | 99.8% | 100% |  |  |  |  |  | 93.7% | 105% | 105% | 96.4% | 125% | 98.1% | 99.5% | 98.3% | 98.5% | 104% | > 10 µM |  | > 10 µM | > 10 µM | 0 |  | 0 | 0 | 99.7% | 95.6% | 97.4% | 101% | 106% | 0 | > 10 µM
O=S(=O)(O)CCS [mesna] | 114% | 102% | 104% | 97.2% | 104% | 98.4% | 91.8% | 104% | 95.9% | 103% |  |  |  |  |  | 103% | 102% | 107% | 98.5% | 101% | > 10 µM | > 10 µM |  | > 10 µM | 0 | 0 |  | 0 |  |  |  |  |  |  | 
O=C(NCc1cccc(O)c1)Nc1nc(-c2ccncc2)cs1 [RKI-1447] | 97.8 ± 5.2% | 97 ± 0.14% | 94.8 ± 6.2% | 96.6 ± 1.1% | 81.3 ± 0.14% | 97.9% | 128% | 146% | 148% | 144% | 94.2 ± 6% | 108 ± 9.9% | 101 ± 3.4% | 91.95 ± 0.49% | 73.1 ± 8.9% | 99.5 ± 3.7% | 100 ± 4.4% | 91.1 ± 13% | 76.1 ± 0.42% | 73.4 ± 0.28% | > 10 µM | > 10 µM |  |  | 0.65 ± 0.49 | 0 | 2.05 ± 1.1 | 5.05 ± 1.8 | 98.8 ± 2.4% | 99.3 ± 2.8% | 101 ± 4.9% | 87.5 ± 3.1% | 61.8 ± 2.3% | 3.6 ± 0.57 | 
Cc1cn(-c2cc(NC(=O)c3ccc(C)c(Nc4nccc(-c5cccnc5)n4)c3)cc(C(F)(F)F)c2)cn1 [nilotinib] | 101% | 114% | 97.9% | 106% | 88.1% | 98.8% | 106% | 111% | 90.1% | 100% |  |  |  |  |  | 107% | 98.2% | 103% | 103% | 106% | > 10 µM | > 10 µM |  | > 10 µM | 0 | 0 |  | 0 |  |  |  |  |  |  | 
CC(C)=CCC/C(C)=C/CNCCNC1C2CC3CC(C2)CC1C3 (stereo unspecified) [SQ-109] | 92.5% | 107% | 81.7% | 90.6% | 74.2% | 94.2% | 111% | 106% | 106% | 94% | 94.3% | 103% | 110% | 103% | 86.3% | 103% | 95.8% | 105% | 102% | 88.8% |  | > 10 µM | > 10 µM | > 10 µM | 2.4 | 0 | 0.1 | 0 | 102% | 104% | 99.5% | 103% | 93.6% | 0 | > 10 µM
O=C(O)c1cn(C2CC2)c2cc(N3CCNCC3)c(F)cc2c1=O [ciprofloxacin] | 112% | 100% | 108% | 112% | 79.1% |  |  |  |  |  | 106% | 104% | 114% | 78.1% | 99.8% | 102% | 97.8% | 102% | 91.8% | 97.1% | > 10 µM |  | > 10 µM | > 10 µM | 0.4 |  | 0 | 0 | 100% | 97.8% | 98% | 96.4% | 103% | 0 | > 10 µM
S=P(N1CC1)(N1CC1)N1CC1 [thiotepa] | 94.7% | 101% | 94.8% | 98.5% | 91.1% | 91.8% | 95.7% | 97.5% | 90.2% | 89.5% | 104% | 96.6% | 102% | 100% | 107% | 108% | 98.9% | 106% | 97.3% | 102% | > 10 µM | > 10 µM | > 10 µM | > 10 µM | 0 | 0 | 0 | 0 |  |  |  |  |  |  | 
